Laboratory results from the supplement of paper PMC10307832.

Columns and labels:
Assay in all cases: relative viability (nuclei count vs DMSO), 5 days (fraction); higher = more cells survive
Silmitasertib = compound: O=C(O)c1ccc2c(c1)nc(Nc1cccc(Cl)c1)c1ccncc12 [Silmitasertib]
Method in brief: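 For viability, nuclei in each treated well were divided by nuclei in vehicle wells and the median across plates was taken. Lung cancer cell lines in 1536-well plates were pinned with five library-drug doses (not always all listed) spaced by √10, cultured 5 days without medium change, and imaged at 4× after Hoechst staining, with plates passing only at control CV below 25% and at least one doubling.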

[1] = compound: O=C(O)c1ccc2c(c1)nc(Nc1cccc(Cl)c1)c1ccncc12 [Silmitasertib] + CC1(C)CCC(c2ccc(Cl)cc2)=C(CN2CCN(c3ccc(C(=O)NS(=O)(=O)c4ccc(N[C@H](CCN5CCOCC5)CSc5ccccc5)c(S(=O)(=O)C(F)(F)F)c4)cc3)CC2)C1 [Navitoclax] (partner 0.5 µM)
Method in brief: (§1)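 Dosing by pin tool came one day after lung cancer cell lines were seeded in 1536-well plates, using either one drug or a fixed anchor-drug dose plus five library-drug doses (not always all listed) in √10 steps. After 5 days, nuclei were counted on 4× images. Relative viability is treated-well nuclei count divided by vehicle-well nuclei count, and values are medians of duplicate plates.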

[2] = compound: O=C(O)c1ccc2c(c1)nc(Nc1cccc(Cl)c1)c1ccncc12 [Silmitasertib] + COc1cc2c(Oc3ccc(NC(=O)C4(C(=O)Nc5ccc(F)cc5)CC4)cc3F)ccnc2cc1OCCCN1CCOCC1 [Foretinib] (partner 0.25 µM)
Method in brief: as §1

[3] = compound: O=C(O)c1ccc2c(c1)nc(Nc1cccc(Cl)c1)c1ccncc12 [Silmitasertib] + CS(=O)(=O)N1CCN(Cc2cc3nc(-c4cccc5[nH]ncc45)nc(N4CCOCC4)c3s2)CC1 [Pictilisib] (partner 1 µM)
Method in brief: as §1

[4] = compound: O=C(O)c1ccc2c(c1)nc(Nc1cccc(Cl)c1)c1ccncc12 [Silmitasertib] + C[C@@H](Oc1cc(-c2cnn(C3CCNCC3)c2)cnc1N)c1c(Cl)ccc(F)c1Cl [Crizotinib] (partner 1 µM)
Method in brief: as §1

[5] = compound: O=C(O)c1ccc2c(c1)nc(Nc1cccc(Cl)c1)c1ccncc12 [Silmitasertib] + Cc1nc(NC(=O)N2CCC[C@H]2C(N)=O)sc1-c1ccnc(C(C)(C)C(F)(F)F)c1 [Alpelisib] (partner 2 µM)
Method in brief: as §1

[6] = compound: O=C(O)c1ccc2c(c1)nc(Nc1cccc(Cl)c1)c1ccncc12 [Silmitasertib] + CC(C)C[C@H](NC(=O)[C@H](Cc1ccccc1)NC(=O)c1cnccn1)B(O)O [Bortezomib] (partner 0.002 µM)
Method in brief: as §1

[7] = compound: O=C(O)c1ccc2c(c1)nc(Nc1cccc(Cl)c1)c1ccncc12 [Silmitasertib] + C[C@]1(O)C[C@@H](c2nc(-c3ccc4ccc(-c5ccccc5)nc4c3)c3c(N)nccn32)C1 [Linsitinib] (partner 1 µM)
Method in brief: as §1

Silmitasertib + Olaparib = compound: O=C(O)c1ccc2c(c1)nc(Nc1cccc(Cl)c1)c1ccncc12 [Silmitasertib] + O=C(c1cc(Cc2n[nH]c(=O)c3ccccc23)ccc1F)N1CCN(C(=O)C2CC2)CC1 [Olaparib] (partner 8 µM)
Method in brief: as §1

[8] = compound: O=C(O)c1ccc2c(c1)nc(Nc1cccc(Cl)c1)c1ccncc12 [Silmitasertib] + CS(=O)(=O)CCNCc1ccc(-c2ccc3ncnc(Nc4ccc(OCc5cccc(F)c5)c(Cl)c4)c3c2)o1 [Lapatinib] (partner 2 µM)
Method in brief: as §1

Cell Line	relative viability (Silmitasertib; 0.04 µM)	relative viability (Silmitasertib; 0.4 µM)	relative viability (Silmitasertib; 1.265 µM)	relative viability (Silmitasertib; 4 µM)	relative viability ([1]; first compound 0.04 µM)	relative viability ([1]; first compound 0.4 µM)	relative viability ([1]; first compound 1.265 µM)	relative viability ([1]; first compound 4 µM)	relative viability ([2]; first compound 0.04 µM)	relative viability ([2]; first compound 0.4 µM)	relative viability ([2]; first compound 1.265 µM)	relative viability ([2]; first compound 4 µM)	relative viability ([3]; first compound 0.04 µM)	relative viability ([3]; first compound 0.4 µM)	relative viability ([3]; first compound 1.265 µM)	relative viability ([3]; first compound 4 µM)	relative viability ([4]; first compound 0.04 µM)	relative viability ([4]; first compound 0.4 µM)	relative viability ([4]; first compound 1.265 µM)	relative viability ([4]; first compound 4 µM)	relative viability ([5]; first compound 0.04 µM)	relative viability ([5]; first compound 0.4 µM)	relative viability ([5]; first compound 1.265 µM)	relative viability ([5]; first compound 4 µM)	relative viability ([6]; first compound 0.04 µM)	relative viability ([6]; first compound 0.4 µM)	relative viability ([6]; first compound 1.265 µM)	relative viability ([6]; first compound 4 µM)	relative viability ([7]; first compound 0.04 µM)	relative viability ([7]; first compound 0.4 µM)	relative viability ([7]; first compound 1.265 µM)	relative viability ([7]; first compound 4 µM)	relative viability (Silmitasertib + Olaparib; first compound 0.04 µM)	relative viability (Silmitasertib + Olaparib; first compound 0.4 µM)	relative viability (Silmitasertib + Olaparib; first compound 1.265 µM)	relative viability (Silmitasertib + Olaparib; first compound 4 µM)	relative viability ([8]; first compound 0.04 µM)	relative viability ([8]; first compound 0.4 µM)	relative viability ([8]; first compound 1.265 µM)	relative viability ([8]; first compound 4 µM)
Calu-6	1.14	0.898	0.885	0.663	1	0.783	0.661	0.374	0.963	0.83	0.846	0.616	0.99	0.934	0.628	0.359	0.915	0.721	0.727	0.527	0.984	0.938	0.755	0.571	1.13	0.868	0.824	0.602	1.04	0.862	0.878	0.49	0.654	0.28	0.445	0.39	1.13	0.945	0.761	0.51
EBC-1	1.09	0.693	0.591	0.29	0.542	0.154	0.134	0.168	0.0961	0.0977	0.0913	0.0847	0.534	0.375	0.178	0.139	0.189	0.16	0.171	0.157	0.925	0.601	0.262	0.211	0.652	0.39	0.347	0.239	0.982	0.655	0.471	0.222	0.796	0.371	0.423	0.212	0.225	0.185	0.2	0.192
